Laboratory results from patent US9850283B2, “Macrocyclic inhibitors of the PD-1/PD-L1 and CD80(B7-1)/PD-L1 protein/protein interactions” (BRISTOL-MYERS SQUIBB COMPANY, priority 2013, dated 2017).
pIC50: −log10 of the molar value. Like-named read-outs stand apart in the source and are kept apart here. Positions of bridges follow the written chain, without caps; N, C: chain ends. Non-standard residues stand in square brackets, D forms with d. Residues, ends and D or L forms follow the SMILES beside them. ξ: configuration not given here. Ala(indol-4-yl) = N[C@@H](Cc1cccc2[nH]ccc12)C(=O)O; Phe(4-CH2NH2) = NCc1ccc(C[C@H](N)C(=O)O)cc1; pY = N[C@@H](Cc1ccc(OP(=O)(O)O)cc1)C(=O)O; Bta = N[C@@H](Cc1csc2ccccc12)C(=O)O; Hyp = O=C(O)[C@@H]1C[C@@H](O)CN1; NMeF = CN[C@@H](Cc1ccccc1)C(=O)O; NMeNle = CCCC[C@H](NC)C(=O)O; NMeM = CN[C@@H](CCSC)C(=O)O; NMeA = CN[C@@H](C)C(=O)O; Orn = NCCC[C@H](N)C(=O)O; Dab = NCC[C@H](N)C(=O)O; Dap = NC[C@H](N)C(=O)O; ξhCys = NC(CCS)C(=O)O; ξC = NC(CS)C(=O)O; Sar = CNCC(=O)O

Legend:
Human PD-L1/PD-1 = molecular target: T1, Human PD-L1/PD-1 (Homo sapiens, UniProt Q9NZQ7); test: HTRF PD-1-Ig/PD-L1-His binding assay (human PD-L1); conditions: cluster symbol
T1 construct: made in house; host or cells: HEK293T
How it was run: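 Ig- and His-fused extracellular PD-1/PD-L1 binding in BSA/Tween-20 dPBS. HTRF with Eu anti-Ig (1 nM final) and APC anti-His (20 nM final).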

[1] = molecular target: T2, LK35.2-hPD-L1 cells / PE-labeled PD-1-Ig (Homo sapiens, UniProt Q9NZQ7); test: LK35.2-hPD-L1 cell binding high-content screening assay; format: cell-based; conditions: cluster symbol
T2 construct: expressed in transfected cells; host or cells: LK35.2 mouse B cell line
How it was run: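 Mouse LK35.2 B cells stably over-expressing human PD-L1, cultured overnight, treated with compound plus PE-labeled human PD-1-Ig (1 nM final) in RPMI/10% FCS for 1 h at 37 °C. After washing, bound fluorescence quantified by high-content imaging.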

[2] = cell line of CBA not given (LK35.2-hPD-L1 or 293T-hPD-L1), read-out: CBA IC50 cluster
[3] = cell binding assay, cell line not given, read-out: CBA IC50 cluster

T2 sequence (Q9NZQ7 19-290): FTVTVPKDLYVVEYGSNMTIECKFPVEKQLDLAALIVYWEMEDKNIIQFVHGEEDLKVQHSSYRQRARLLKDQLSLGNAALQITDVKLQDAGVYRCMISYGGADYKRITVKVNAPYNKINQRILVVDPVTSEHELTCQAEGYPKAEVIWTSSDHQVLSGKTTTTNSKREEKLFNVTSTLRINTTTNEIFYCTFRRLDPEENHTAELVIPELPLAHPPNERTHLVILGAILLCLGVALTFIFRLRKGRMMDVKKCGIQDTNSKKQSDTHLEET
T1 sequence (Q9NZQ7 with tags, fused parts or gaps): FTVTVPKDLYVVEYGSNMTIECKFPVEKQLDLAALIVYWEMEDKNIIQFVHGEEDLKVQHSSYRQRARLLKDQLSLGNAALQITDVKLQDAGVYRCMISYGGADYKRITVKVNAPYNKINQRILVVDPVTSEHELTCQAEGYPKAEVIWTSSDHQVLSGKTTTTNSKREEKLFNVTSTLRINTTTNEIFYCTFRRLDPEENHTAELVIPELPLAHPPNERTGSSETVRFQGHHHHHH

CCCC[C@H]1C(=O)N(C)[C@@H](CCCC)C(=O)N[C@@H](CCCNC(=N)N)C(=O)N[C@H](C(=O)NCC(N)=O)CSCC(=O)N[C@@H](Cc2ccccc2)C(=O)N(C)[C@@H](C)C(=O)N[C@@H](CC(N)=O)C(=O)N2CCC[C@H]2C(=O)N[C@@H](Cc2cnc[nH]2)C(=O)N[C@@H](CC(C)C)C(=O)N(C)CC(=O)N[C@@H](Cc2c[nH]cn2)C(=O)N[C@@H](CO)C(=O)N[C@@H](Cc2c[nH]c3ccccc23)C(=O)N1C [Example 1073] ({CH2CO}-F[NMeA]NPHL[Sar]HSW[NMeNle][NMeNle]RCG-NH2; thioether N-14)
pIC50 (Human PD-L1/PD-1; read-out: HTRF IC50 cluster): < 7.52 | pIC50 [1, 2]: < 7.13

CCCC[C@H]1C(=O)N(C)CC(=O)N[C@@H](CC(=O)O)C(=O)N[C@@H](C(C)C)C(=O)N(C)[C@@H](Cc2ccccc2)C(=O)N[C@@H](Cc2ccc(O)cc2)C(=O)N(C)CC(=O)N[C@@H](Cc2cccc3[nH]ccc23)C(=O)N[C@@H](Cc2ccc(O)cc2)C(=O)N[C@@H](CC(C)C)C(=O)N[C@H](C(=O)NCC(N)=O)CSCC(=O)N[C@@H](Cc2ccccc2)C(=O)N(C)[C@@H](Cc2ccccc2)C(=O)N1C [Example 3071] ({CH2CO}-F[NMeF][NMeNle][Sar]DV[NMeF]Y[Sar][Ala(indol-4-yl)]YLCG-NH2; thioether N-13)
pIC50 (Human PD-L1/PD-1; read-out: HTRF IC50 cluster): 7.52 to 8.17 | pIC50 [1, 2]: 7.14 to 8.32

CCCC[C@H]1C(=O)N(C)[C@@H](CCCC)C(=O)N[C@@H](CCCN)C(=O)N[C@H](C(=O)NCC(N)=O)CSCC(=O)N[C@@H](Cc2ccc(O)cc2)C(=O)N2CCC[C@H]2C(=O)N[C@@H](CC(=O)O)C(=O)N2CCC[C@H]2C(=O)N[C@@H](CN)C(=O)N[C@@H](CCC(=O)O)C(=O)N2C[C@H](O)C[C@H]2C(=O)N[C@@H](Cc2c[nH]c3ccccc23)C(=O)N[C@@H](CCN)C(=O)N[C@@H](Cc2csc3ccccc23)C(=O)N1C [Example 1193] ({CH2CO}-YPDP[Dap]E[Hyp]W[Dab][Bta][NMeNle][NMeNle][Orn]CG-NH2; thioether N-14)
pIC50 (Human PD-L1/PD-1; read-out: HTRF IC50 cluster): 8.17 to 9.41 | pIC50 [1, 2]: 8.33 to 9.80

CCCC[C@H]1C(=O)N(C)CC(=O)N[C@@H](CC(=O)O)C(=O)N[C@@H](C(C)C)C(=O)N(C)[C@@H](Cc2ccccc2)C(=O)N[C@@H](Cc2ccc(O)cc2)C(=O)N(C)CC(=O)N[C@@H](Cc2c[nH]c3ccccc23)C(=O)N[C@@H](Cc2ccc(O)cc2)C(=O)N[C@@H](CC(C)C)C(=O)N[C@H](C(=O)NCC(N)=O)CSCC(=O)N[C@@H](Cc2ccc(OP(=O)(O)O)cc2)C(=O)N(C)[C@@H](Cc2ccccc2)C(=O)N1C [Example 3066] ({CH2CO}-[pY][NMeF][NMeNle][Sar]DV[NMeF]Y[Sar]WYLCG-NH2; thioether N-13)
pIC50 (Human PD-L1/PD-1; HTRF IC50 cluster): < 7.52 | pIC50 ([1]; CBA IC50 cluster, cell line of CBA not given (LK35.2-hPD-L1 or 293T-hPD-L1)): < 7.13

CCCC[C@H]1C(=O)N(C)CC(=O)N[C@@H](CC(=O)O)C(=O)N[C@@H](C(C)C)C(=O)N(C)[C@@H](Cc2ccc(O)cc2)C(=O)N[C@@H](Cc2ccc(O)cc2)C(=O)N(C)CC(=O)N[C@@H](Cc2c[nH]c3ccccc23)C(=O)N[C@@H](Cc2ccc(O)cc2)C(=O)N[C@@H](CC(C)C)C(=O)N[C@H](C(=O)NCC(N)=O)CSCC(=O)N[C@@H](Cc2ccccc2)C(=O)N(C)[C@@H](Cc2ccccc2)C(=O)N1C [Example 3168] (HELM PEPTIDE1{[O=C(C[*:3])[*:2]].F.[meF].[CCCC[C@@H](C(=O)[*:2])N(C)[*:1]].[Sar].D.V.[meY].Y.[Sar].W.Y.L.C.G.[am]}$PEPTIDE1,PEPTIDE1,1:R3-14:R3$$$V2.0)
pIC50 (Human PD-L1/PD-1; read-out: HTRF IC50 cluster): < 7.52 | pIC50 [1, 2]: < 7.13

CCCC[C@H]1C(=O)N(C)[C@@H](CCCC)C(=O)N[C@@H](CCCNC(=N)N)C(=O)N[C@H](C(=O)NCC(N)=O)CSCC(=O)N[C@@H](Cc2ccccc2)C(=O)N(C)[C@@H](C)C(=O)N[C@@H](CC(N)=O)C(=O)N2CCC[C@H]2C(=O)N[C@@H](Cc2c[nH]cn2)C(=O)N[C@@H](CC(C)C)C(=O)N(C)CC(=O)N[C@@H](Cc2c[nH]c3ccccc23)C(=O)N[C@@H](CO)C(=O)N[C@@H](Cc2c[nH]cn2)C(=O)N1C [Example 1004] ({CH2CO}-F[NMeA]NPHL[Sar]WSH[NMeNle][NMeNle]RCG-NH2; thioether N-14)
pIC50 (Human PD-L1/PD-1; read-out: HTRF IC50 cluster): < 7.52 | pIC50 [1, 2]: < 7.13

CCCC[C@H]1C(=O)N(C)[C@@H](CCCC)C(=O)N[C@@H](CCCNC(=N)N)C(=O)NC(C(=O)NCC(N)=O)CCSCC(=O)N[C@@H](Cc2ccc(O)cc2)C(=O)N(C)[C@@H](C)C(=O)N[C@@H](CC(N)=O)C(=O)N2CCC[C@H]2C(=O)N[C@@H](Cc2cnc[nH]2)C(=O)N[C@@H](CC(C)C)C(=O)N2CCC[C@H]2C(=O)N[C@@H](Cc2c[nH]c3ccccc23)C(=O)N[C@@H](CO)C(=O)N[C@@H](Cc2csc3ccccc23)C(=O)N1C (stereo partly shown) [Example 9018] ({CH2CO}-Y[NMeA]NPHLPWS[Bta][NMeNle][NMeNle]R[ξhCys]G-NH2; thioether N-14)
pIC50 (Human PD-L1/PD-1; read-out: HTRF IC50 cluster): 7.52 to 8.17 | pIC50 [1, 3]: < 7.13

CCCC[C@H]1C(=O)N(C)[C@@H](CCSC)C(=O)N[C@@H](C)C(=O)NC(C(=O)NCC(N)=O)CSCC(=O)N[C@@H](Cc2ccc(O)cc2)C(=O)N(C)[C@@H](C)C(=O)N[C@@H](CC(N)=O)C(=O)N2CCC[C@H]2C(=O)N[C@@H](CN)C(=O)N[C@@H](CC(C)C)C(=O)N2CCC[C@H]2C(=O)N[C@@H](Cc2c[nH]c3ccccc23)C(=O)N[C@@H](CO)C(=O)N[C@@H](Cc2csc3ccccc23)C(=O)N1C (stereo partly shown) [Example 9086] ({CH2CO}-Y[NMeA]NP[Dap]LPWS[Bta][NMeNle][NMeM]A[ξC]G-NH2; thioether N-14)
pIC50 (Human PD-L1/PD-1; read-out: HTRF IC50 cluster): 8.17 to 9.41 | pIC50 [1, 3]: 8.33 to 9.80

CCCC[C@H]1C(=O)N(C)CC(=O)N[C@@H](CC(=O)O)C(=O)N[C@@H](C(C)C)C(=O)N(C)[C@@H](Cc2ccccc2)C(=O)N2CCC[C@H]2C(=O)N2CCC[C@@H]2C(=O)N[C@@H](Cc2c[nH]c3ccccc23)C(=O)N[C@@H](Cc2ccc(O)cc2)C(=O)N[C@@H](CC(C)C)C(=O)N[C@H](C(=O)NCC(N)=O)CSCC(=O)N[C@@H](Cc2ccccc2)C(=O)N(C)[C@@H](Cc2ccccc2)C(=O)N1C [Example 3176] (HELM PEPTIDE1{[O=C(C[*:3])[*:2]].F.[meF].[CCCC[C@@H](C(=O)[*:2])N(C)[*:1]].[Sar].D.V.[meF].P.[dP].W.Y.L.C.G.[am]}$PEPTIDE1,PEPTIDE1,1:R3-14:R3$$$V2.0)
pIC50 (Human PD-L1/PD-1; read-out: HTRF IC50 cluster): < 7.52 | pIC50 [1, 2]: < 7.13

CCCC[C@H]1C(=O)N(C)[C@@H](CCCC)C(=O)N[C@@H](CCCNC(=N)N)C(=O)N[C@H](C(=O)NCC(N)=O)CSCC(=O)N[C@@H](Cc2ccc(CN)cc2)C(=O)N(C)[C@@H](C)C(=O)N[C@@H](CC(N)=O)C(=O)N2CCC[C@H]2C(=O)N[C@@H](CN)C(=O)N[C@@H](CC(C)C)C(=O)N2C[C@H](O)C[C@H]2C(=O)N[C@@H](Cc2c[nH]c3ccccc23)C(=O)N[C@@H](CO)C(=O)N[C@@H](Cc2c[nH]c3ccccc23)C(=O)N1C [Example 7042] ({CH2CO}-[Phe(4-CH2NH2)][NMeA]NP[Dap]L[Hyp]WSW[NMeNle][NMeNle]RCG-NH2; thioether N-14)
pIC50 (Human PD-L1/PD-1; read-out: HTRF IC50 cluster): 7.52 to 8.17 | pIC50 [1, 3]: 7.14 to 8.32

CCCC[C@H]1C(=O)N(C)[C@@H](CCCC)C(=O)N[C@@H](CCN)C(=O)N[C@H](C(=O)NCC(N)=O)CSCC(=O)N[C@@H](Cc2ccc(O)cc2)C(=O)N(C)[C@@H](C)C(=O)N[C@@H](CC(N)=O)C(=O)N2CCC[C@H]2C(=O)N[C@@H](Cc2cnc[nH]2)C(=O)N[C@@H](CCC(=O)O)C(=O)N2C[C@H](O)C[C@H]2C(=O)N[C@@H](Cc2c[nH]c3ccccc23)C(=O)N[C@@H](CO)C(=O)N[C@@H](Cc2c[nH]c3ccccc23)C(=O)N1C [Example 5031] ({CH2CO}-Y[NMeA]NPHE[Hyp]WSW[NMeNle][NMeNle][Dab]CG-NH2; thioether N-14)
pIC50 (Human PD-L1/PD-1; read-out: HTRF IC50 cluster): 8.17 to 9.41 | pIC50 [1, 3]: 8.33 to 9.80
